{
  "source": "paper PMC9719519",
  "about": "“Non-classical ferroptosis inhibition by a small molecule targeting PHB2” (Nature Communications, 2022)",
  "assay_in_all_cases": "biochemical",
  "design_in_all_cases": "Eurofins recombinant human kinase profiling, remaining kinase activity as % of control, 10 uM ATP",
  "conditions_in_all_cases": "ATP 10 uM; read-out: %Ctrl@10 μM",
  "key": {"PDGFRα(D842V)(h)": {"molecular_target": "T1, PDGFRα(D842V)(h) (Homo sapiens, UniProt P16234, D842V)", "T1 construct": "gene PDGFRA", "summary_of_the_method": "(§1)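 Activity measured in a commercial panel of 401 recombinant human protein kinases run as a kinase profiling service.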"}, "CaMKIV(h)": {"molecular_target": "T2, CaMKIV(h) (Homo sapiens, UniProt Q16566)", "T2 construct": "gene CAMK4", "T2 sequence (Q16566 whole entry)": "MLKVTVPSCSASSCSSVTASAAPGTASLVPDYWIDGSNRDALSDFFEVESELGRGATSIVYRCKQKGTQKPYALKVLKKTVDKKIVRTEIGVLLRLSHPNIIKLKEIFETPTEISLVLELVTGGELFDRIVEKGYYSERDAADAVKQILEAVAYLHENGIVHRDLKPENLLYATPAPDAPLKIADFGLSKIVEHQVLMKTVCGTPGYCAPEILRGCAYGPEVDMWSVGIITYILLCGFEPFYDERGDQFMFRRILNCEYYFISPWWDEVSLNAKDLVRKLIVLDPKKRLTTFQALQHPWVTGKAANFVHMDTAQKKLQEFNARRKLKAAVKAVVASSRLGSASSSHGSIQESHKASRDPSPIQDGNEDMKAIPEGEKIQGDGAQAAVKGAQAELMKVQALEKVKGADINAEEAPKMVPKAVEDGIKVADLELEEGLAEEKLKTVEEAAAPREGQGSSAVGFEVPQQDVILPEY", "summary_of_the_method": "as §1"}, "CDK3/cyclinE(h)": {"molecular_target": "CDK3/cyclinE(h) (Homo sapiens, UniProt Q00526)", "summary_of_the_method": "as §1"}, "TLK2(h)": {"molecular_target": "TLK2(h) (Homo sapiens, UniProt Q86UE8)", "summary_of_the_method": "as §1"}, "Fer(h)": {"molecular_target": "Fer(h) (Homo sapiens, UniProt P16591)", "sequence (P16591 whole entry)": "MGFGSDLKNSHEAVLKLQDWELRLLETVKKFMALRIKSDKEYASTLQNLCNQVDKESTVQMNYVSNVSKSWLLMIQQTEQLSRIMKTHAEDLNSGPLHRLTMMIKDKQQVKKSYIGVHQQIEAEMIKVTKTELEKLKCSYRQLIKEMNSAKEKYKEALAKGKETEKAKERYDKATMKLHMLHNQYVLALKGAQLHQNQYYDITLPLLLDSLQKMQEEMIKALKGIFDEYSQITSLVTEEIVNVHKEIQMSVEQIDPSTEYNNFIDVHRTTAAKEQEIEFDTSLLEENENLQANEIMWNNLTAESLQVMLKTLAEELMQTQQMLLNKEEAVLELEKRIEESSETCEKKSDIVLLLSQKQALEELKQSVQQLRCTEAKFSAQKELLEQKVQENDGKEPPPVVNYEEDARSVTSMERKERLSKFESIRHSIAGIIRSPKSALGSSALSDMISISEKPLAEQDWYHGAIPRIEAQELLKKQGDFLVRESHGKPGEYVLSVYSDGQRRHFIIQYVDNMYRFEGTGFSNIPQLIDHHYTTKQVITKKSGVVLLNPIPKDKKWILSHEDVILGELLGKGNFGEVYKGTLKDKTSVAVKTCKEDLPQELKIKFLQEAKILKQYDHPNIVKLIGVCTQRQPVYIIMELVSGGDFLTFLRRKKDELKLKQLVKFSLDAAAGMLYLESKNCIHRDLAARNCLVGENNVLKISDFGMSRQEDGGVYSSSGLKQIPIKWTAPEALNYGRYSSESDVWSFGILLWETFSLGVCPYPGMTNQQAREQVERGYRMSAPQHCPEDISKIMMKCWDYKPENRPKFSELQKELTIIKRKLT", "summary_of_the_method": "as §1"}, "TrkB(h)": {"molecular_target": "T3, TrkB(h) (Homo sapiens, UniProt Q16620)", "T3 construct": "gene NTRK2", "summary_of_the_method": "as §1"}, "cKit(h)": {"molecular_target": "T4, cKit(h) (Homo sapiens, UniProt P10721)", "T4 construct": "gene KIT", "summary_of_the_method": "as §1"}, "CaMKIIδ(h)": {"molecular_target": "T5, CaMKIIδ(h) (Homo sapiens, UniProt Q13557)", "T5 construct": "gene CAMK2D", "summary_of_the_method": "as §1"}, "Pim-1(h)": {"molecular_target": "T6, Pim-1(h) (Homo sapiens, UniProt P11309)", "T6 construct": "gene PIM1", "summary_of_the_method": "as §1"}, "Rsk1(h)": {"molecular_target": "T7, Rsk1(h) (Homo sapiens, UniProt Q15418)", "T7 construct": "gene RPS6KA1", "summary_of_the_method": "as §1"}, "Rsk3(h)": {"molecular_target": "T8, Rsk3(h) (Homo sapiens, UniProt Q15349)", "T8 construct": "gene RPS6KA2", "T8 sequence (Q15349 whole entry)": "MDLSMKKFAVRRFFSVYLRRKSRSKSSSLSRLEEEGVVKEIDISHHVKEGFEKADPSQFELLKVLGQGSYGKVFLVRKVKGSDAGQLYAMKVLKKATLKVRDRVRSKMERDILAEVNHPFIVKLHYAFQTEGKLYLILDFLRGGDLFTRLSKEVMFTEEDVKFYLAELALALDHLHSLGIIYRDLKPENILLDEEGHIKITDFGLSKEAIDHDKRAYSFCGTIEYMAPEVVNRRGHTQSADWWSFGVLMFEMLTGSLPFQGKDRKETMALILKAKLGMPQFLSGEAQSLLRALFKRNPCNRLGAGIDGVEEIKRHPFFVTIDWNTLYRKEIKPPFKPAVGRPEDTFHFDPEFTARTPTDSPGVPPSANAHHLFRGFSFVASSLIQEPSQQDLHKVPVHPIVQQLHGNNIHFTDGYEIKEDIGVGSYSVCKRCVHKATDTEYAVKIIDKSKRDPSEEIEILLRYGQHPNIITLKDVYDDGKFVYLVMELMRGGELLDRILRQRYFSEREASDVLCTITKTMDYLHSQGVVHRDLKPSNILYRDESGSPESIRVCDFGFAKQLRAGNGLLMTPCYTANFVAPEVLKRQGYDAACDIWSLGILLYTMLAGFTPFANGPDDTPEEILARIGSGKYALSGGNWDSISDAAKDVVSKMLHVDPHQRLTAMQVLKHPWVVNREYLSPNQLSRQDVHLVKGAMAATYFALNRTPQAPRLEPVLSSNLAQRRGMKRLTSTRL", "summary_of_the_method": "as §1"}, "EphA3(h)": {"molecular_target": "EphA3(h) (Homo sapiens, UniProt P29320)", "summary_of_the_method": "as §1"}, "MAPKAP-K3(h)": {"molecular_target": "T9, MAPKAP-K3(h) (Homo sapiens, UniProt Q16644)", "T9 construct": "gene MAPKAPK3", "T9 sequence (Q16644 whole entry)": "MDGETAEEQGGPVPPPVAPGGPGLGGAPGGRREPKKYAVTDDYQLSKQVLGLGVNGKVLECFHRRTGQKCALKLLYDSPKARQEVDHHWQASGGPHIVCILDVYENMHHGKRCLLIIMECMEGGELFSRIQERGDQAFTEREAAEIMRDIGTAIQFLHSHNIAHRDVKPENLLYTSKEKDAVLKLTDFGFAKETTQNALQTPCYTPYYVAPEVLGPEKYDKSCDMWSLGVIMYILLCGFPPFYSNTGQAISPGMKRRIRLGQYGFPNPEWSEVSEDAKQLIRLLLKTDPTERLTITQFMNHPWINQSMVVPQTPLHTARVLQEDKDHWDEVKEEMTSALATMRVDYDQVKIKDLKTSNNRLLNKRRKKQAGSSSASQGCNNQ", "summary_of_the_method": "as §1"}, "Itk(h)": {"molecular_target": "Itk(h) (Homo sapiens, UniProt Q08881)", "summary_of_the_method": "as §1"}, "ULK3(h)": {"molecular_target": "ULK3(h) (Homo sapiens, UniProt Q6PHR2)", "sequence (Q6PHR2 whole entry)": "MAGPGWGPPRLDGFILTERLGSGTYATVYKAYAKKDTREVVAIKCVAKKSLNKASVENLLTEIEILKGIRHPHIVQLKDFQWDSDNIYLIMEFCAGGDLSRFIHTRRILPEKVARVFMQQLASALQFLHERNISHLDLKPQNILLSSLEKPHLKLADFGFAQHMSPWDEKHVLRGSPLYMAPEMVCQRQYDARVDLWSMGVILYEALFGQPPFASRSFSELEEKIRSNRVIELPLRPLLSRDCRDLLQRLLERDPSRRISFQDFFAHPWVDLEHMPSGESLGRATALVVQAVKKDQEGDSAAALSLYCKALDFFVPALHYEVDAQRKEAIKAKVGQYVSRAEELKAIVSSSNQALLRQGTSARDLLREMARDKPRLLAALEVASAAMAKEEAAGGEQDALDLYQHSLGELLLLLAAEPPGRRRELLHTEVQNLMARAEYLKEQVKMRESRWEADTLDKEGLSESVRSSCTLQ", "summary_of_the_method": "as §1"}, "JNK2α2(h)": {"molecular_target": "T10, JNK2α2(h) (Homo sapiens, UniProt P45984)", "T10 construct": "gene MAPK9; isoform alpha2", "T10 sequence (P45984 whole entry, canonical isoform)": "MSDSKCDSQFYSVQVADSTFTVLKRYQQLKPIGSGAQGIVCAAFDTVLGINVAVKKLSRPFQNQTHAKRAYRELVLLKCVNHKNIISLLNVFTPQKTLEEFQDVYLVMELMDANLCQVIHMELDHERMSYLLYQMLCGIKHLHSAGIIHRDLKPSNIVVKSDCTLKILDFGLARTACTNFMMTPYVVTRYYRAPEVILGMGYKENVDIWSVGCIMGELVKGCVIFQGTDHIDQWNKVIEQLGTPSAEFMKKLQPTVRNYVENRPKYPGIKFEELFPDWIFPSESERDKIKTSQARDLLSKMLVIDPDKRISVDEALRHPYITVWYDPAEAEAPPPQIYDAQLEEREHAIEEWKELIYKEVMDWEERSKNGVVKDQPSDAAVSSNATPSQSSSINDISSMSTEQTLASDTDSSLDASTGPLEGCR", "summary_of_the_method": "as §1"}, "EphB4(h)": {"molecular_target": "EphB4(h) (Homo sapiens, UniProt P54760)", "summary_of_the_method": "as §1"}, "NEK1(h)": {"molecular_target": "NEK1(h) (Homo sapiens, UniProt Q96PY6)", "summary_of_the_method": "as §1"}, "MAPKAP-K2(h)": {"molecular_target": "T11, MAPKAP-K2(h) (Homo sapiens, UniProt P49137)", "T11 construct": "gene MAPKAPK2", "T11 sequence (P49137 whole entry)": "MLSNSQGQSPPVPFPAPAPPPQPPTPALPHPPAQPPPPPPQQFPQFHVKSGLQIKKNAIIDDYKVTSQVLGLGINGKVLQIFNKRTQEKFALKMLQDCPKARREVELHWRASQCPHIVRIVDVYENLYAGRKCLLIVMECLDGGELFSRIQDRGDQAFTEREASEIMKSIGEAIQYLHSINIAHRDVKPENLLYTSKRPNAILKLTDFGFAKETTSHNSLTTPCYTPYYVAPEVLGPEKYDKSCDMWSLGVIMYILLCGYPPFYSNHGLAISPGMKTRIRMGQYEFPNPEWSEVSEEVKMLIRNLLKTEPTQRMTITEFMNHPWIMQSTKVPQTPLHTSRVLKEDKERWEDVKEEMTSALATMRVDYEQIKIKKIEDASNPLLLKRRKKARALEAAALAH", "summary_of_the_method": "as §1"}, "PDGFRβ(h)": {"molecular_target": "T12, PDGFRβ(h) (Homo sapiens, UniProt P09619)", "T12 construct": "gene PDGFRB", "T12 sequence (P09619 whole entry)": "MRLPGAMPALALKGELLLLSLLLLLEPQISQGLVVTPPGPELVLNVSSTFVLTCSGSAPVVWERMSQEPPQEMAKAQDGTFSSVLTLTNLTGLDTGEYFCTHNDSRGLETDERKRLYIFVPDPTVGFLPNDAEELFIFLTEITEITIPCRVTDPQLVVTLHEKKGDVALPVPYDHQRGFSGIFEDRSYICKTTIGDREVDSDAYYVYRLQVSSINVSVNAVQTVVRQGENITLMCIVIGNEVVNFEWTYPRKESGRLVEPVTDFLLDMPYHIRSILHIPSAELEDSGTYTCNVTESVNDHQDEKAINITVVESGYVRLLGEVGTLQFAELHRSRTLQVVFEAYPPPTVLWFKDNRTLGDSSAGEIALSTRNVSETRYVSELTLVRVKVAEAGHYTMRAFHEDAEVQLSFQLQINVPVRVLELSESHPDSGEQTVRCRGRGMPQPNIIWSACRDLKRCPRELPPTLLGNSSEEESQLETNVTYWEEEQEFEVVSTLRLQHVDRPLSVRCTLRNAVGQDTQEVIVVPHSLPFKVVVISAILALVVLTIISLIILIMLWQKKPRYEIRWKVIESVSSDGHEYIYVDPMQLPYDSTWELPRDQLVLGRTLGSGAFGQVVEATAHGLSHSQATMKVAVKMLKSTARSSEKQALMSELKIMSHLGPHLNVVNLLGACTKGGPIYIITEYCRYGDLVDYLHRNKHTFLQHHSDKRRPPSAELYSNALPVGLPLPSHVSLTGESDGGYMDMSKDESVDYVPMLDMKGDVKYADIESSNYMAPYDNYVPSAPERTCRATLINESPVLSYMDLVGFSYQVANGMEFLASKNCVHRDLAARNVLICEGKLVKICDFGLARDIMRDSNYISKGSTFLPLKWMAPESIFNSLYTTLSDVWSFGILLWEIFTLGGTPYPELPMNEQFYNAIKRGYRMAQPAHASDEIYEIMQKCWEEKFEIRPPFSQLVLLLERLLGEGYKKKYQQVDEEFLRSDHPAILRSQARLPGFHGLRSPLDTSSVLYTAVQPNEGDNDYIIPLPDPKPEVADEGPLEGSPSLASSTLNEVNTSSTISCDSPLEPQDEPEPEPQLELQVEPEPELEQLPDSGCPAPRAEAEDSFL", "summary_of_the_method": "as §1"}, "SIK3(h)": {"molecular_target": "SIK3(h) (Homo sapiens, UniProt Q9Y2K2)", "summary_of_the_method": "as §1"}, "IKKβ(h)": {"molecular_target": "T13, IKKβ(h) (Homo sapiens, UniProt O14920)", "T13 construct": "gene IKBKB", "summary_of_the_method": "as §1"}},
  "data": [
    {"smiles": "C1=C(c2nc(-c3cnn(C4CCNCC4)c3)cn3cc(-c4ccccc4)nc23)CCOC1", "note": "[YL-939]", "values": [
      {"measurement": "remaining activity at 10 µM", "setting": "PDGFRα(D842V)(h)", "result": 113, "unit": "%"},
      {"measurement": "remaining activity at 10 µM", "setting": "CaMKIV(h)", "result": 77, "unit": "%"},
      {"measurement": "remaining activity at 10 µM", "setting": "CDK3/cyclinE(h)", "result": 102, "unit": "%"},
      {"measurement": "remaining activity at 10 µM", "setting": "TLK2(h)", "result": 88, "unit": "%"},
      {"measurement": "remaining activity at 10 µM", "setting": "Fer(h)", "result": 86, "unit": "%"},
      {"measurement": "remaining activity at 10 µM", "setting": "TrkB(h)", "result": 81, "unit": "%"},
      {"measurement": "remaining activity at 10 µM", "setting": "cKit(h)", "result": 81, "unit": "%"},
      {"measurement": "remaining activity at 10 µM", "setting": "CaMKIIδ(h)", "result": 68, "unit": "%"},
      {"measurement": "remaining activity at 10 µM", "setting": "Pim-1(h)", "result": 68, "unit": "%"},
      {"measurement": "remaining activity at 10 µM", "setting": "Rsk1(h)", "result": 94, "unit": "%"},
      {"measurement": "remaining activity at 10 µM", "setting": "Rsk3(h)", "result": 96, "unit": "%"},
      {"measurement": "remaining activity at 10 µM", "setting": "EphA3(h)", "result": 73, "unit": "%"},
      {"measurement": "remaining activity at 10 µM", "setting": "MAPKAP-K3(h)", "result": 102, "unit": "%"},
      {"measurement": "remaining activity at 10 µM", "setting": "Itk(h)", "result": 106, "unit": "%"},
      {"measurement": "remaining activity at 10 µM", "setting": "ULK3(h)", "result": 68, "unit": "%"},
      {"measurement": "remaining activity at 10 µM", "setting": "JNK2α2(h)", "result": 72, "unit": "%"},
      {"measurement": "remaining activity at 10 µM", "setting": "EphB4(h)", "result": 97, "unit": "%"},
      {"measurement": "remaining activity at 10 µM", "setting": "NEK1(h)", "result": 105, "unit": "%"},
      {"measurement": "remaining activity at 10 µM", "setting": "MAPKAP-K2(h)", "result": 92, "unit": "%"},
      {"measurement": "remaining activity at 10 µM", "setting": "PDGFRβ(h)", "result": 113, "unit": "%"},
      {"measurement": "remaining activity at 10 µM", "setting": "SIK3(h)", "result": 84, "unit": "%"},
      {"measurement": "remaining activity at 10 µM", "setting": "IKKβ(h)", "result": 87, "unit": "%"}
    ]}
  ]
}
